Measured values published in ChEMBL document CHEMBL1130072, “Probing the active sites of monoamine oxidase A and B with 1,4-disubstituted tetrahydropyridine substrates and inactivators” (J Med Chem, 1997).

Assays:
[1] = target: T1, Amine oxidase [flavin-containing] B (Bos taurus, UniProt P56560); assay: Tested for maximum velocity of monoamine oxidase B catalyzed oxidation; design: unit not given here
T1 sequence (P56560 whole entry): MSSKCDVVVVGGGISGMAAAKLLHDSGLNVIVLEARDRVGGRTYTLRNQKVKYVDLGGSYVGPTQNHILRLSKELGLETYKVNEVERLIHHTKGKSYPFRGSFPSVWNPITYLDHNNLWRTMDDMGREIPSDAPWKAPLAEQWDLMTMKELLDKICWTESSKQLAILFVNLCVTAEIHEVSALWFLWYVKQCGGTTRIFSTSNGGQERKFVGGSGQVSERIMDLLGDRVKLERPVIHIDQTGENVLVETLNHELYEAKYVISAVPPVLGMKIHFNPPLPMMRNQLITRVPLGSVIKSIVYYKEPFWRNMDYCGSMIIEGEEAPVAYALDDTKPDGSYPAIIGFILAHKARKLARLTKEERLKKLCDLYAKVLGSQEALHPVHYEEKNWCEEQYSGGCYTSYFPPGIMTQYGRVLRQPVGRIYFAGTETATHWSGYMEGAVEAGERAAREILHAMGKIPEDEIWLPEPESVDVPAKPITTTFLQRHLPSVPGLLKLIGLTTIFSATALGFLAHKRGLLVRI

[2] = target: T2, Amine oxidase [flavin-containing] A (Homo sapiens, UniProt P21397); assay: Tested for maximum velocity of monoamine oxidase A catalyzed oxidation; design: unit not given here
T2 sequence (P21397 whole entry): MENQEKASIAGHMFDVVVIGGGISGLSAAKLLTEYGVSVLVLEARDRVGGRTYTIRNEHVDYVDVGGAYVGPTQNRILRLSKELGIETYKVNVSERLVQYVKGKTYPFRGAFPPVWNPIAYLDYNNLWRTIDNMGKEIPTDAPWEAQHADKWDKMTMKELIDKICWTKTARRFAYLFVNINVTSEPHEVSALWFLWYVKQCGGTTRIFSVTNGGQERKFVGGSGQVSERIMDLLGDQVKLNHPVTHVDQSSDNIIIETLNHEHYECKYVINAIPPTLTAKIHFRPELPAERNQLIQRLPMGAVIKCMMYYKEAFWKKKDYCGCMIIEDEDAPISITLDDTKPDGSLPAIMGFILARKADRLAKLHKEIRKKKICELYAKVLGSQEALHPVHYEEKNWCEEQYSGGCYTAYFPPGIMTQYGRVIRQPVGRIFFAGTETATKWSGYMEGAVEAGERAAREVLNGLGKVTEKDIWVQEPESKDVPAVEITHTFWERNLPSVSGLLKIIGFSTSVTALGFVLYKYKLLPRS

[3] = target: T3, Amine oxidase [flavin-containing] B (Homo sapiens, UniProt P27338); assay: Vmax/Km values for MAO-B; design: unit not given here
T3 sequence (P27338 whole entry): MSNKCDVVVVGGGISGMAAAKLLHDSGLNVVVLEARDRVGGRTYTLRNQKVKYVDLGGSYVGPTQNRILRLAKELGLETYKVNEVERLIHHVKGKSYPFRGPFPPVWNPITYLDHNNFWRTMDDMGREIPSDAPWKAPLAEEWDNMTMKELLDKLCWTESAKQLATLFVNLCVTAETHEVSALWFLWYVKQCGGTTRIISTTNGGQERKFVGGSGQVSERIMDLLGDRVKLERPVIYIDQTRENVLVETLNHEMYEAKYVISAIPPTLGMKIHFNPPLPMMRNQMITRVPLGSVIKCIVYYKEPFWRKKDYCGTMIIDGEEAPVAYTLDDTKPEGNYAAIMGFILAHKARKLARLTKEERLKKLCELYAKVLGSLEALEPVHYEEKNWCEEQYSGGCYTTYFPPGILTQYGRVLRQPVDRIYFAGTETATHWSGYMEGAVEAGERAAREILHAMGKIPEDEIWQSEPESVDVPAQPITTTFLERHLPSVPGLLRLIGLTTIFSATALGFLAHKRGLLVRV

[4] = target: T2, Amine oxidase [flavin-containing] A; assay: Vmax/Km values for MAO-A; design: unit not given here
[5] = target: T4, Monoamine oxidase (Homo sapiens, UniProt P21397+P27338); assay: Selectivity Coefficient measured as ratio of Vmax/Km value of MAO-B to that of MAO-A; type: protein assay
T4 sequence (P21397 whole entry): T2 sequence (P21397 whole entry)
T4 sequence (P27338 whole entry): T3 sequence (P27338 whole entry)

[6] = target: T2, Amine oxidase [flavin-containing] A; assay: Tested for Kinetic data against the monoamine oxidase A catalyzed oxidation.
[7] = target: T1, Amine oxidase [flavin-containing] B; assay: Tested for Kinetic data against the monoamine oxidase B catalyzed oxidation.
[8] = target: T2, Amine oxidase [flavin-containing] A; assay: Tested for Kinetic data against the monoamine oxidase A catalyzed oxidation;NSD = No substrate properties detected
[9] = target: T2, Amine oxidase [flavin-containing] A; assay: Tested for inhibition- binding affinity against monoamine oxidase A catalyzed oxidation; NID = no inactivation properties detected.
[10] = target: T2, Amine oxidase [flavin-containing] A; assay: Tested for Km, the substrate concentration with gives half maximum velocity of the monoamine oxidase A catalyzed oxidation; NSD = no substrate properties detected
[11] = target: T1, Amine oxidase [flavin-containing] B; assay: Tested for Km, the substrate concentration with gives half maximum velocity of the monoamine oxidase B catalyzed oxidation; NSD = no substrate properties detected
[12] = target: T1, Amine oxidase [flavin-containing] B; assay: Tested for inhibition- binding affinity against monoamine oxidase B catalyzed oxidation; NID = no inactivation properties detected.

Compound	Vmax [1]	Ratio [3]	Selectivity coefficient [5]	Vmax / Km [6]	Vmax / Km [7]	further results
CN1CC=C(c2ccc3ccccc3c2)CC1	42	71				Vmax [2]: 204; Ratio [4]: 443
CN1CC=C(c2ccccc2)CC1	204	523	3.65			Vmax [2]: 20; Ratio [4]: 143
CN1CC=C(c2cccc3ccccc23)CC1	51	364				Vmax [2]: 526; Ratio [4]: 862
CCc1ccccc1C1=CCN(C)CC1			0.43	11500 M⁻¹ s⁻¹	4920 M⁻¹ s⁻¹	
CC(C)c1ccccc1C1=CCN(C)CC1			0.05	18700 M⁻¹ s⁻¹	850 M⁻¹ s⁻¹	
CN1CC=C(c2c[nH]c3ccccc23)CC1.O=C(O)C(=O)O	358				6620 M⁻¹ s⁻¹	
COc1cccc(C2=CCN(C)CC2)c1					15600 M⁻¹ s⁻¹	Vmax / Km [8]: No substrate detected
CN1CC=C(c2cccc(Oc3ccccc3)c2)CC1				92800 M⁻¹ s⁻¹		
C1=C(c2ccc(-c3ccccc3)cc2)CCN(C2CC2)C1						Ki [9]: No inhibition
CN1CC=C(c2cccc(-c3ccccc3)c2)CC1	153	157				Km [10]: No substrate detected
CN1CC=C(c2ccc(-c3ccccc3)cc2)CC1						Km [10]: No substrate detected; Km [11]: No substrate detected
Cc1ccccc1C1=CCN(C)CC1			2.19	9800 M⁻¹ s⁻¹	21470 M⁻¹ s⁻¹	
C1=C(c2ccccc2-c2ccccc2)CCN(C2CC2)C1						Ki [12]: No inhibition
Cc1cccc(C2=CCN(C)CC2)c1			8.5	1270 M⁻¹ s⁻¹	10800 M⁻¹ s⁻¹	
CN1CC=C(c2ccccc2-c2ccccc2)CC1	20	12				Vmax [2]: 107; Ratio [4]: 892
